One data set deals with CYP2C19 (Homo sapiens, UniProt P33261). Briefly: Inhibition of human CYP2C19 at 10 uM relative to control. The class given is ADME.
The target in a further data set is CYP2C9 (Homo sapiens, UniProt P11712). Put plainly: Inhibition of human CYP2C9 at 10 uM relative to control. The class given is ADME.
Data set [1] has as its target High affinity nerve growth factor receptor (Homo sapiens, UniProt P04629). Briefly: Inhibition of human N-terminal GST-tagged TRKA cytoplasmic domain (436 to 790 residues) expressed in baculovirus expression system using fluorescence labelled CSKtide as substrate by electrophoretic mobility shift assay. On the technique in general: Mobility shift assays separate free from complexed probe on a gel.

The next data set has as its target CYP3A4 (Homo sapiens, UniProt P08684). Put plainly: Inhibition of human recombinant CYP3A4 at 10 uM by fluorimetry relative to control. The format is ADME.
The target of data set [2] is T1, Testis-specific serine/threonine-protein kinase 1 (Homo sapiens) (UniProt Q9BXA7).
T1 sequence (whole entry): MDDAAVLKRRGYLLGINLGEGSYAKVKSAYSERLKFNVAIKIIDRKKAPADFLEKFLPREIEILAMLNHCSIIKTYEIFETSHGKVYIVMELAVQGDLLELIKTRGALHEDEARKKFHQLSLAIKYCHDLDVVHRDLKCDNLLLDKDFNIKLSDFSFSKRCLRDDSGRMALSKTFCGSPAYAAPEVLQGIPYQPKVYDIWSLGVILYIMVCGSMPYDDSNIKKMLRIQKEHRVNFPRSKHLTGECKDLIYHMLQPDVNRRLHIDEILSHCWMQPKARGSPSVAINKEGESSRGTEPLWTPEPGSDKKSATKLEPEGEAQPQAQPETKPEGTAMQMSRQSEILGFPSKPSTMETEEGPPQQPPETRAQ
Briefly: Inhibition of full length human N-terminal GST-tagged TSSK1 (1 to 367 residues) expressed in baculovirus expression system using fluorescence labelled GS peptide substrate at 50 times IC50 by electrophoretic mobility shift assay relative to control.

Data set [3] addresses Receptor-type tyrosine-protein kinase FLT3 (Homo sapiens) (UniProt P36888). Briefly: Inhibition of FLT3 autophosphorylation at Tyr-596 in human MV4-11 cells after 1.5 hrs by Western blot analysis. The class given is cell-based.
Data set [4] can be described thus: Aqueous solubility in pH 7.4 PBS buffer at 200 uM after 24 hrs by UV-visible HPLC based shake flask method. The class given is physicochemical. Conditions: PBS buffer pH 7.4, pH 7.4.
Data set [5] is described as follows: Growth inhibition of human WI38 cells after 48 hrs by CCK8 assay. The class given is cell-based. The conditions noted are these: WI-38, 48 h. In general terms: Formazan colour is commonly taken as a measure of viable cells.
For the next data set, the target named is CYP1A2 (Homo sapiens, UniProt P05177). Put plainly: Inhibition of human recombinant CYP1A2 using CEC as substrate at 10 uM after 30 mins by fluorimetry relative to control. The class given is ADME. The conditions noted are these: recombinant CYP1A2, probe CEC.
Data set [6] deals with Mitogen-activated protein kinase kinase kinase kinase 4 (Homo sapiens, UniProt O95819). Put plainly: Inhibition of human N-terminal GST-tagged HGK catalytic domain (1 to 328 residues) expressed in baculovirus expression system using fluorescence labelled moesin-derived peptide substrate by electrophoretic mobility shift assay.
The species entered for data set [7] is Homo sapiens. Put plainly: Selectivity ratio of IC50 for human N-terminal GST-tagged HGK catalytic domain (1 to 328 residues) expressed in baculovirus expression system to IC50 for human N-terminal GST-tagged FLT3 cytoplasmic domain (564 to 993 residues) expressed in baculovirus expression system.
Data set [8] can be described thus: Metabolic stability in human liver microsomes assessed as parent compound remaining at 1 uM after 1 hr. The conditions noted are these: read-out: Stability. The format is ADME. (Liver microsomes are vesicles of endoplasmic reticulum, rich in cytochrome P450 enzymes.)
Data set [9] concerns MV4-11. Put plainly: Induction of apoptosis in human MV4-11 cells at 0.17 to 17 uM after 48 hrs by annexin V/propidium iodide staining based flow cytometry. The class given is functional, cell-based.
For data set [10], the species on record is Homo sapiens. Put plainly: Selectivity ratio of IC50 for human N-terminal GST-tagged TRKA cytoplasmic domain (436 to 790 residues) expressed in baculovirus expression system to IC50 for human N-terminal GST-tagged FLT3 cytoplasmic domain (564 to 993 residues) expressed in baculovirus expression system.
The target in the next data set is CYP2D6 (Homo sapiens, UniProt P10635). Put plainly: Inhibition of human CYP2D6 at 10 uM relative to control. The class given is ADME.
Data set [11] is described as follows: Permeability from apical to basolateral side in human Caco2 cells at 10 uM after 60 mins by HPLC-MS/MS analysis. The class given is ADME, cell-based. Conditions: Caco-2, read-out: permeability.
The test system of data set [12] is MV4-11. Briefly: Growth inhibition of human MV4-11 cells harboring FLT3-ITD after 48 hrs by CCK8 assay. Conditions: MV4-11, 48 h. The format is functional, cell-based.

The values below come from ChEMBL document CHEMBL3792292, “Development of a potent and selective FLT3 kinase inhibitor by systematic expansion of a non-selective fragment-screening hit” (Bioorg Med Chem Lett, 2016).

Molecules are shown by their SMILES. Values after ≈ are worked out from the molar mass of the structure shown. Active and inactive are the calls of the source. The calls are words filed in the database; no cut-off is given here.

In general, inhibition refers to how much of the control response was suppressed. The IC50 is the concentration at which inhibition is half-maximal. The thermodynamic solubility is the concentration in solution at equilibrium with solid.

Chain of High affinity nerve growth factor receptor (P04629 whole entry, the tested form may be a part): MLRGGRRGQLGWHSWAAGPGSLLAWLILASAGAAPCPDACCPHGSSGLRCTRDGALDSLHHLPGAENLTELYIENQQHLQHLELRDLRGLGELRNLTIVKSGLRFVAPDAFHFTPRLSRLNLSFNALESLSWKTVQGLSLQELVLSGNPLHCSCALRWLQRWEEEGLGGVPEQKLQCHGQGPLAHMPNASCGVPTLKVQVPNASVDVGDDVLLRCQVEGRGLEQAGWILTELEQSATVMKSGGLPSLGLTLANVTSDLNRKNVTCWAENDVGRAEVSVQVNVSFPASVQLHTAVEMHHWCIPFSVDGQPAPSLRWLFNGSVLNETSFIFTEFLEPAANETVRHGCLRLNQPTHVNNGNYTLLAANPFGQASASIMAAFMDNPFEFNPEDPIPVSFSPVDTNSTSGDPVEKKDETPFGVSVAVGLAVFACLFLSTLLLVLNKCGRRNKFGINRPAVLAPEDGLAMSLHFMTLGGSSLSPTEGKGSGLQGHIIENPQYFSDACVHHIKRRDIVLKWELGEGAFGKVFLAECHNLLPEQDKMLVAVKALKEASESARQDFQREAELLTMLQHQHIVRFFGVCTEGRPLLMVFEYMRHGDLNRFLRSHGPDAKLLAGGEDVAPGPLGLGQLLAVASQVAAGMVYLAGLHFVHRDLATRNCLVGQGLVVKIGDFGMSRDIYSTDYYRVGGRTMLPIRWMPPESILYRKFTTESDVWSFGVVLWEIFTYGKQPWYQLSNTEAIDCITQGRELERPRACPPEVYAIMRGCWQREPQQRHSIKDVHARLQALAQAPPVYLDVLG
Chain of CYP1A2 (P05177 whole entry, the tested form may be a part): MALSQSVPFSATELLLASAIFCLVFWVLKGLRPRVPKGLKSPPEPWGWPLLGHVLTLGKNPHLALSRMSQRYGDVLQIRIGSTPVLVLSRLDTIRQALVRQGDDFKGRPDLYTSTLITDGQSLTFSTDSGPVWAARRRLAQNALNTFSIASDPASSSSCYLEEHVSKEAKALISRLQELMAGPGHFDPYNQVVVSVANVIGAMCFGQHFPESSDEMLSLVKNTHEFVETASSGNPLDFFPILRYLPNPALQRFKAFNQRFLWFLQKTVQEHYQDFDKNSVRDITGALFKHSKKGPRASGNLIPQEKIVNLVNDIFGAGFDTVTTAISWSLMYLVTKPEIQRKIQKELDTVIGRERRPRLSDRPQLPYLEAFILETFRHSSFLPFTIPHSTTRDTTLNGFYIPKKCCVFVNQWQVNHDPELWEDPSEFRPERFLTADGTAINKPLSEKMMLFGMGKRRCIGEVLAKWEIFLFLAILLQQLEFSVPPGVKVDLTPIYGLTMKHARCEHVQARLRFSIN
Chain of CYP2D6 (P10635 whole entry): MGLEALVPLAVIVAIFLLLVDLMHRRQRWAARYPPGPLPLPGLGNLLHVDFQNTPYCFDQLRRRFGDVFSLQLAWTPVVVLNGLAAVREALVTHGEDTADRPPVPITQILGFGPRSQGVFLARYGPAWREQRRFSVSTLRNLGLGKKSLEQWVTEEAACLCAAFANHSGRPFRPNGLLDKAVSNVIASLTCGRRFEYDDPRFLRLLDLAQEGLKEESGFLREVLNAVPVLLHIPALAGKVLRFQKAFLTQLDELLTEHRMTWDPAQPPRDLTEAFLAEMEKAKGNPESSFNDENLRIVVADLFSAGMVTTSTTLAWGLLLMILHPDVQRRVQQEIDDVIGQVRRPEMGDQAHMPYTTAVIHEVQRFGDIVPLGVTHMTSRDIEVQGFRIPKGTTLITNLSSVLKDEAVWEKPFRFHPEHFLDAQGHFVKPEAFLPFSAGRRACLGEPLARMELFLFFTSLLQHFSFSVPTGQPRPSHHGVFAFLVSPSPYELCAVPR
Chain of Receptor-type tyrosine-protein kinase FLT3 (Homo sapiens) (P36888 whole entry): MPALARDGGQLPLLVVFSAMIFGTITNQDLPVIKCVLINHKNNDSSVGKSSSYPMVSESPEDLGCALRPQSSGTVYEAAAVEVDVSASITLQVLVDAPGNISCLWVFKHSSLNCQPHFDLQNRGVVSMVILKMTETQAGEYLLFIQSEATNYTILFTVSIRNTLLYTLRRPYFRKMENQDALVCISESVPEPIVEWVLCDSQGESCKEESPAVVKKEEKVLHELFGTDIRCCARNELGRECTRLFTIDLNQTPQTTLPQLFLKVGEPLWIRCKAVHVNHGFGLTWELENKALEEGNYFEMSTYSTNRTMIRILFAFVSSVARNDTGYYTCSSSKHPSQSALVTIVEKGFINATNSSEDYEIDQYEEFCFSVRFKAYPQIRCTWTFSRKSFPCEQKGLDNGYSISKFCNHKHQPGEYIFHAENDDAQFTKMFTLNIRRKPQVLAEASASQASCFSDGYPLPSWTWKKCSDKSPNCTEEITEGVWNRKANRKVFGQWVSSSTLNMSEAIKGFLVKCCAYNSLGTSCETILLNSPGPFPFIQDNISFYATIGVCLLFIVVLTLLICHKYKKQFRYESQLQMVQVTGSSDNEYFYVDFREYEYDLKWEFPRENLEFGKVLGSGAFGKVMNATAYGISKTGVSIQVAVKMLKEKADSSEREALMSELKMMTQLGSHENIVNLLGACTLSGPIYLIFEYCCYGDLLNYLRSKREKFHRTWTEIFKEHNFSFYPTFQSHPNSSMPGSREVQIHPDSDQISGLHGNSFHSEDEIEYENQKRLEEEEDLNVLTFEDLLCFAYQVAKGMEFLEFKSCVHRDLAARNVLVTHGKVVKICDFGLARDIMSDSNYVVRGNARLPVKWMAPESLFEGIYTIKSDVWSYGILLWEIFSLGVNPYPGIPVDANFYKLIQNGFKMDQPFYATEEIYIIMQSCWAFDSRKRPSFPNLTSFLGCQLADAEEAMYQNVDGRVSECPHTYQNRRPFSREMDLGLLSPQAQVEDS
Chain of CYP2C19 (P33261 whole entry): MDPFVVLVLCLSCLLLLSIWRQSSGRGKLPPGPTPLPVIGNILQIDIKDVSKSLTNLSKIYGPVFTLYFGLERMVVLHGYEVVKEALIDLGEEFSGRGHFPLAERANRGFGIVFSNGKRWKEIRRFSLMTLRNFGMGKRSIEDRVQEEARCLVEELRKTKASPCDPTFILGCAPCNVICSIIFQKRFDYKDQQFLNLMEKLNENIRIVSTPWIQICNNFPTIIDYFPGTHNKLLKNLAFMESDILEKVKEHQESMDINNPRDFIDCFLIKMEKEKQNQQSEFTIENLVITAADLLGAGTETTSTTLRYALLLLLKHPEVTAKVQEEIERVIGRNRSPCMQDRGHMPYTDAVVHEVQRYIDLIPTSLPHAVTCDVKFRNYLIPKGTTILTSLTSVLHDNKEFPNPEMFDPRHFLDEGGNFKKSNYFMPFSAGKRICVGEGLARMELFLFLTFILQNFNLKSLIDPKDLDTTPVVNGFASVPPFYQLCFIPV
Chain of CYP3A4 (P08684 whole entry): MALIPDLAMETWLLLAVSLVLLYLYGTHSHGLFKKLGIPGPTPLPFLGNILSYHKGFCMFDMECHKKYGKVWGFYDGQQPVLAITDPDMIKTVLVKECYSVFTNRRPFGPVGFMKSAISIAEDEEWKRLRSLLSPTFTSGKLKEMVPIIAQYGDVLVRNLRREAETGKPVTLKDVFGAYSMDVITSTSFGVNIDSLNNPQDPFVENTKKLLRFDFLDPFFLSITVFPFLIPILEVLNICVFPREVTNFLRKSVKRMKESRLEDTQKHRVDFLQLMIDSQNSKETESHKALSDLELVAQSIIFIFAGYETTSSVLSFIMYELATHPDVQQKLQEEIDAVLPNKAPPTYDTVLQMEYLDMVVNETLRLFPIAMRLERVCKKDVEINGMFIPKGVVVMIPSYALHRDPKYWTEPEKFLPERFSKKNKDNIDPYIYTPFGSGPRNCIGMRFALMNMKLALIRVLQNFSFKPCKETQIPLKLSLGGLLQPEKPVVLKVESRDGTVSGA
Chain of Mitogen-activated protein kinase kinase kinase kinase 4 (O95819 whole entry, the tested form may be a part): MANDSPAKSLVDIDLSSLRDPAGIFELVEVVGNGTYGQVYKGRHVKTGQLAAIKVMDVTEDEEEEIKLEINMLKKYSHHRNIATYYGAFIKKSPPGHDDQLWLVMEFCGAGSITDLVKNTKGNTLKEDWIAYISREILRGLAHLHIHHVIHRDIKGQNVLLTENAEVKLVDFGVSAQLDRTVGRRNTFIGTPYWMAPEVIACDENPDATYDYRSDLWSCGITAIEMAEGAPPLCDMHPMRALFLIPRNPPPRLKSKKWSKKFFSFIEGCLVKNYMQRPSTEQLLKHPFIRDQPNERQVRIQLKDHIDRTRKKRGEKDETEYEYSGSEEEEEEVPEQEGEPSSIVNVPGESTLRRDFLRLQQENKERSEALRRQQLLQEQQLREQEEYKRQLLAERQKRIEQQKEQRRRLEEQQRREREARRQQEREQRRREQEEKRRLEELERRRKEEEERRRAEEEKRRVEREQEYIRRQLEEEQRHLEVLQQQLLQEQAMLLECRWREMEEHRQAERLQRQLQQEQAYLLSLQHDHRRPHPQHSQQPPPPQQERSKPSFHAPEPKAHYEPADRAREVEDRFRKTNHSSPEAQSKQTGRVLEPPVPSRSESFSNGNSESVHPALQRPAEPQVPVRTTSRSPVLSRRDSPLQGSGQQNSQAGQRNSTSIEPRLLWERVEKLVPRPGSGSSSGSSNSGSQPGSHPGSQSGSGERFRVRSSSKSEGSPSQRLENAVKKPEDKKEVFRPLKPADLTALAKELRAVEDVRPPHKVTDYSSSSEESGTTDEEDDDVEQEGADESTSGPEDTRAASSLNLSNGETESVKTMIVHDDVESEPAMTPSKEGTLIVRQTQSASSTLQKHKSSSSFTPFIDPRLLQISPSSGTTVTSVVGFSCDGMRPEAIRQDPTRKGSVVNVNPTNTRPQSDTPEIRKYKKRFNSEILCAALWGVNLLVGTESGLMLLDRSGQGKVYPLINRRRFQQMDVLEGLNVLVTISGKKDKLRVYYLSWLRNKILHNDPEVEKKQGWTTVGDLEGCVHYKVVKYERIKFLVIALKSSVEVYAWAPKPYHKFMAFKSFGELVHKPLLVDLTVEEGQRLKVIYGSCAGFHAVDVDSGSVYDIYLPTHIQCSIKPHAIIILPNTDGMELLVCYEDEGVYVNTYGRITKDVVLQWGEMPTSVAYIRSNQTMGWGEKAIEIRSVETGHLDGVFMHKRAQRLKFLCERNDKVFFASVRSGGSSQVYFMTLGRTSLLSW

Regarding `O=C(Nc1ccc(CN2CCN(c3ccccc3)CC2)cc1)c1n[nH]c2ccccc12`, the inhibition at 10 µM at CYP2C19 came out at 57%; at CYP2C9, 36%; on CYP3A4 it was 48%; against CYP2D6, 62%. In addition, the IC50 in [1] was 137 nM; in data set [5], over 10000 nM; in data set [6], 410 nM; with MV4-11 [12] it was 164 nM. The inhibition is 1% in data set [2] and “Dose-dependent effect” in data set [3]. Besides, the solubility (thermodynamic) at 24 h, 200 µM in data set [4] worked out at 3 µM (≈ 1.23 µg/mL). In addition, the inhibition at 0.5 h, 10 µM on CYP1A2 was determined as 36%. Besides, the Ratio IC50 came to 45 in the data set listed under Homo sapiens [7] and 15 in the data set filed under Homo sapiens [10]. Besides, the remaining at 1 h, 1 µM in data set [8] turned out to be 50%. For the same compound, the outcome with MV4-11 [9] was Active. Further, the Papp A→B at 1 h, 10 µM in [11] was found to be 4 ×10⁻⁶ cm/s.
As for `O=C(Nc1ccc(C(=O)N2CCN(c3ccccc3)CC2)cc1)c1n[nH]c2ccccc12`, the inhibition in data set [2] is 4.3%.
As for `O=C(Nc1ccccc1)c1n[nH]c2ccccc12`, the inhibition in data set [2] is 12.9%. Moreover, the IC50 in data set [5] is over 10000 nM; with MV4-11 [12] it was 7700 nM.
